Test system: EpiDerm Full Thickness 400 (EFT-400) tissues
Assay: Mattek full-thickness skin model (EFT-400) skin thickness
Type: cell-based
Conditions: 14 days; average over the three corticosteroids (100 nM dexamethasone, 50 nM betamethasone, 10 nM Clobetasol); p<0.001
Method: Following the protocol of Schoepe, we used the FTSM model to determine if co-treatment with Mitocreatine would reduce the loss in skin thickness produced by glucocorticoids.
2.5 mL of EpiDerm Full Thickness 400 (EFT-400) medium was dispensed into each well of the four 6-well plates aseptically in the tissue culture hood. The plates containing the EFT-400 tissues were removed from their plastic packaging and transferred using sterile forceps into the 6-well plates containing the 2.5 mL of EFT-400 media, making sure that no agarose adheres to the insert and that the media makes full contact with the underside of the tissue insert membrane (no air bubbles under the insert). The apical surface of the tissue should remain exposed to air (no media should be added to the side of the insert).
The tissues were equilibrated overnight at 37° C., 5% CO2. Treatment conditions are listed below in Table 5.
Day 2-13: The plates were visually examined and the media containing the test compounds was replenished each day.
Day 15: The inserts were dislodged from the support and the tissue carefully removed from the support with a scalpel.
The tissues were placed in 50 mL conical tubes containing 10% phosphate buffered formalin and sent for sectioning, histological processing and H&E staining Slides were visualized using a Leica Stereoscope equipped with a digital camera. Images were acquired and measured using ExoLabs software. Data was tabulated in Excel and the results were analyzed.

SMILES	reduction in skin thickness (FTSM)
C[C@H]1C[C@H]2[C@@H]3CCC4=CC(=O)C=C[C@]4(C)[C@@]3(F)[C@@H](O)C[C@]2(C)[C@@]1(O)C(=O)CCl [Clobetasol]	26%
C[C@H]1C[C@H]2[C@@H]3CCC4=CC(=O)C=C[C@]4(C)[C@@]3(F)[C@@H](O)C[C@]2(C)[C@@]1(O)C(=O)CO [betamethasone]	26%
C[C@@H]1C[C@H]2[C@@H]3CCC4=CC(=O)C=C[C@]4(C)[C@@]3(F)[C@@H](O)C[C@]2(C)[C@@]1(O)C(=O)CO [dexamethasone]	26%

Reference: patent publication US9707244B2, “Compositions and methods for treating conditions that affect epidermis” (Gencia Corporation, priority 2013, dated 2017)
